# According to ChEMBL document CHEMBL4715735, “Sesquiterpenes from Inula japonica with Inhibitory Effects on Nitric Oxide Production in Murine Macrophage RAW 264.7 Cells” (J Nat Prod, 2016):
# System: RAW264.7
# Test: Inhibition of LPS-induced NO production in mouse RAW264.7 cells incubated for 24 hrs by Griess reagent based assay
# Format: functional, cell-based
# Conditions: RAW264.7, 24 h
row,IC50 [nM],SMILES
1,2500,C=C1C(=O)O[C@H]2C[C@@H](C)[C@@H]3[C@@H](OC(C)=O)C[C@H](OC(C)=O)[C@@]3(C)[C@@H](O)[C@H]12
2,2000,C=C1C(=O)O[C@@H]2C[C@H](C)C(CCC(C)=O)=CC[C@H]12 [TOMENTOSIN]
3,2500,C=C1C(=O)O[C@H]2C[C@@H](C)[C@@H]3CC[C@H](O)[C@@]3(C)C[C@H]12 [PSEUDOGUAIANOLIDE]
4,11600,COc1ccc2c(c1)c(CC(=O)O)c(C)n2C(=O)c1ccc(Cl)cc1 [INDOMETHACIN]
5,6600,C=C1C(=O)O[C@@H]2CC(C)=C([C@@H](C)CCCOC(C)=O)[C@@H](OC(=O)C[C@H](C)CC)[C@H]12

row,SMILES,IC50 [nM]
1,C=C1C(=O)O[C@H]2C[C@@H](C)[C@@H]3[C@@H](OC(C)=O)C[C@H](O)[C@]3(C)[C@@H](OC(C)=O)[C@H]12,3200
2,C=C1C(=O)O[C@H]2C[C@H](C)[C@@H]3[C@@H](OC(C)=O)C[C@H](O)[C@@]3(C)C[C@H]12,2800
3,C=C1C(=O)O[C@H]2C[C@@H](C)[C@@H]3[C@H](OC(C)=O)C[C@H](O)[C@@]3(C)[C@@H](O)[C@H]12,15400
